# “Also recorded” adds a separate entry of the source.
# Assays:
# [1] = tested on: swelling-activated currents in ventricular myocytes; assay: Perforated patch whole-cell swelling-activated currents in ventricular myocytes from rabbits with aortic regurgitation-induced CHF; type: cell-based, rabbit; conditions: 0.4 μM
# Protocol: Ventricular myocytes were freshly isolated from New Zealand white rabbits with aortic regurgitation induced congestive heart failure using a collagenase-pronase dispersion method (Clemo et al., 1997, supra). Cells were stored in a modified Kraft-Bruhe solution (KOH 132 mM, glutamic acid 120 mM, KCl 2.5 mM, KH2PO4 10 mM, MgSO4 1.8 mM, K2EGTA 0.5 mM, glucose 11 mM, taurine 10 mM, Hepes 10 mM, pH 7.2). Myocytes were used within 6 h of harvesting and only quiescent cells with no evidence of membrane blebbing were selected for study.
# Swelling activated currents were measured in myocytes according to the method of Clemo & Baumgarten (1997). Briefly, electrodes were pulled from glass capillaries to give a final tip diameter of […] and a resistance of 0.5–1 MW when filled with the standard electrode filling solution (K aspartate 120 mM, KCl 10 mM, NaCl 10 mM, MgSO4 3 mM, Hepes 10 mM, pH 7.1). Whole cell currents were recorded using an Axoclamp 200A. Pulse and ramp protocols, voltage clamp data acquisition and off-line data analysis were controlled with software written in ASYST. Both step and ramp voltage clamp protocols were applied with a holding potential of −80 mV. Currents were digitized at 1 KHz and low-pass filtered at 200 Hz. Whole cell currents were recorded using the amphotericin perforated patch technique. Solution changes were performed by bath perfusion that was completed within 10 s. The standard bath solution contained (NaCl 65 mM, KCl 5 mM, CaSO4 2.5 mM, MgSO4 0.5 mM, glucose 10 mM and Hepes 10 mM pH 7.2, and 130 mM (IT) or 283 mM (1.5 T) mannitol to control the osmolarity. Isotonic osmolarity was taken as 296 mosm (IT) and 444 mosm for hypertonic solution (1.5 T).
# The myocytes were exposed to 1.0 T and 1.5 T solution in the absence (1.0 TC, 1.5 TC) and presence (1.0 TTX, 1.5 TTX) of 0.4 μM GsMTx-4. […] However, whole cell current was unaffected by GsMTx-4 when swelling-activated currents were inactivated by 1.5 T hypertonic saline (FIG. 9Bd). […] The remaining inward current is largely. ICI,swell. […]
# [2] = tested on: whole-cell swelling-activated currents in adult rat astrocytes; assay: Whole-cell (Nystatin perforated patch) currents in adult rat astrocytes, isotonic and hypotonic swelling; type: cell-based; conditions: for estimated reduction in swelling-activated current: relative to mean before and after controls
# Protocol: It is considered that part of the swelling activated currents are attributable to SACs. To illustrate this embodiment, adult rat astrocytes were cultured as described above. Whole cell current was measured by the Nystatin perforated patch. Bath saline was the same as in Example 2. Pipette saline consisted of: KCl 80 mM, K2SO4 30 mM, NaCl 10 mM, MgSO4 3 mM, CaCl20.13 mM, EGTA 0.23 mM and Hepes 10 mM, pH 7.3. Nystatin was dissolved in pipette saline to a final concentration of […]. After patch formation, access resistance was allowed to drop to ˜15 MW (uncompensated), after which the series resistance compensation was set at ˜65%, and prediction was set to ˜75%. Whole cell capacitance measurements ranged from ˜25–50 pF. Whole cell currents were monitored by either a voltage step protocol shown in FIG. 7, or by 600 ms voltage ramps. During hypotonic swelling the cell was perfused initially with isotonic saline (bath saline with 160 mM mannitol replacing 80 mM NaCl) before switching to hypotonic saline (isotonic saline minus 140 mM mannitol). The BPS-8 perfusion system was used to rapidly (<200 ms) change the bathing solution. Peak currents were measured at 3–5 ms into voltage steps.
# [3] = tested on: ventricular myocytes; assay: Myocyte volume by video microscopy in CHF rabbit ventricular myocytes; type: cell-based; conditions: 0.4 μM
# Protocol: Myocyte volume was determined by visualization with an inverted Nikon Diaphot microscope equipped with Hoffman modulation optics and a high resolution TV camera coupled to a video frame-grabber. Images were captured on-line each time a ramp or step voltage clamp protocol was performed using a program written in C and assembler and linked to ASYST voltage-clamp software. A combination of commercial (MOCHA; SPSS) and custom (ASYST) programs were used to determine cell width, length, and area of the image. GsMTx-4 produced a cell volume reduction that is ˜40% of that produced by 1.5 T […] saline.
# [4] = tested on: perfused rabbit hearts; assay: Stretch-induced atrial fibrillation in perfused rabbit hearts
# From the text: To illustrate this embodiment, fibrillation was initiated in perfused rabbit hearts with a burst of high-frequency stimulation FIG. 10A. Stretching the atrium chamber increased the incidence and duration of fibrillation (FIG. 10A–C). At pressures above 12 cm H2O, the fibrillation became sustained and the probability of sustained fibrillation (for, longer than 60 s) approached unity. The probability of inducing fibrillation was increased by stimulating the heart with a short burst of high-frequency pacing before each measurement (arrow in FIG. 10b). Perfusion with 170 nM GsMtx-4 suppressed both the incidence (FIG. 10c) and duration (FIG. 10d) of fibrillation in all hearts (n=10).
sequence,measurement,setting,value
GCLEFWWKCNPNDDKCCRPKLKCSKLFKLCNFSFGK [GsMTx-4],"effect on inward ICir,swell",[1]; 1.0 T,significant reduction
same,"effect on outward ICI,swell",[1]; 1.0 T,no effect
same,effect on whole cell current when swelling-activated currents inactivated,[1]; 1.5 T hypertonic saline,unaffected
same,change in reversal potential of swelling-activated current,[2]; 5 μM GsMTx-4,+2 mV
same,effect on whole-cell currents in isotonic saline,"[2]; 5 μM GsMTx-4, 30 to 120 s after perfusion",no significant difference
same,reduction of peak swelling-activated current response,"[2]; 5 μM, 30 seconds after hypotonic exposure",about 75%
same,estimated reduction in swelling-activated current,"[2]; 5 μM, at +100 mV",~38%
same,estimated reduction in swelling-activated current,"[2]; 5 μM, at −100 mV",~48%
same,cell volume reduction relative to that produced by 1.5 T saline,[3],~40%
same,duration of fibrillation,[4]; 170 nM perfusion,decreased the average time to spontaneous recovery from AF; also recorded: suppressed
same,incidence of fibrillation,"[4]; 170 nM perfusion, n=10 hearts",suppressed
same,stretch-induced shortening of the refractory period,"[4]; 170 nM, n=10",did not block
same,sustained fibrillation,"[4]; 170 nM, pressures below 17.5 cm H2O",completely inhibited
